Read-outs that look alike come from different tables or passages of the source.
Columns and labels:
Aedes aegypti L1 larvae = experiment: Activity against larvae of Aedes aegypti (L1 larvae, 384-well, image-based mortality); conditions: 48 h at 27° C., 384-well, read-out: EC50 (percentage of mortality, A. aegypti L1 larvae)
Description: Example 3: Screening Method to Test Activity of Compounds of Formula (I) Against Larvae of Aedes aegypti
Eight A. aegypti L1 larvae in a total volume of 64 μL water were added to 384-well microplates containing compounds formulated in 100% DMSO. The plates were incubated for 48 h at 27° C. Individual well images were acquired and analyzed using a pipeline to quantitatively assess the amount of larvae biomass accumulating at the bottom of the well. The efficacy of a compound at a given dose is expressed as “percentage of mortality” and determined by comparison to average biomass descriptors of positive and negative control wells containing 1.0 μM Fipronil or DMSO only, respectively. Dose response assay were conducted to determine an EC50 value.

[1] = system: adult Rhipicephalus sanguineus ticks; experiment: Contact activity against adult Rhipicephalus sanguineus (coated vial, mortality at 48 h); conditions: Rhipicephalus sanguineus; 48 hours post-treatment, coated vial; read-out: EC50 (percentage mortality, adult R. sanguineus, contact)
Description: Example 5: Screening Method to Test Contact Activity of Compounds of Formula (I) Against Adult Rhipicephalus sanguineus
Compounds of formula (I) formulated in 100% DMSO were diluted in a solution containing acetone and Triton X-100 (0.02%). The resulting formulation was used to coat the inner walls of glass scintillation vials and the filter paper covering the cap of the vial. Once dried, ten adult R. sanguineus ticks were added to the vials. The vials were incubated at 24° C., 95% relative humidity, and 12 hours of light/12 hours of dark until evaluation. Ticks were visually evaluated for mortality at 48 hours post-treatment. Compound efficacy at a given dose is expressed as percentage mortality. A dose response series was implemented to determine EC50 values.
(§1) The four structurally closest prior art compounds (A), (B), (C) and (D) specifically excluded from the scope of formula (I) were characterized vis-a-vis selected compounds of formula (I) with regard to their potency in in vitro screening assays against fleas (Ctenocehalides felis) and ticks (Rhipicephalus sanguineus).
(§2) However, as explained above, spectrum of action against this range of species (i.e. fleas and ticks) is a desirable property of ectoparasiticides for veterinary use. In the following table 1 comparative experimental data of the in vitro assays are shown regarding flea membrane feeding (ingestion, blood feeding) activity against Ctenocephalides felis and contact activity against Rhipicephalus sanguineus.

[2] = system: adult Ctenocephalides felis fleas; experiment: Contact activity against adult Ctenocephalides felis (treated surface, motility by machine vision, 24 h); conditions: treated surface, 24h, read-out: EC80 (% motility reduction, adult C. felis, contact)
Excerpt: Example 7: Screening Method to Test Contact Activity of Compounds of Formula (I) Against Adult Ctenocephalides felis

Plutella xylostella = experiment: Insecticidal test on Plutella xylostella (Chinese cabbage seedling dip); conditions: 144 h, 500 ppm, seedling dip, 6 days after dip treatment, read-out: activity level (corrected mortality rate), Plutella xylostella
Description: Example 12: Insecticidal Test on Plutella xylostella
(§3) The compounds of formula (I) of the present invention or salts thereof were separately dispersed in water and diluted to 500 ppm. Ten adults of Plutella xylostella were released onto Chinese cabbage seedlings and allowed to lay eggs thereon. 2 days after the release of the adults, the seedling was dipped in the dispersion for about 30 seconds. After air dried, the seedling was kept in a room at 25° C. 6 days after the dip treatment, the numbers of the dead and alive insects were counted. The corrected mortality rate was calculated according to the following formula and the insecticidal activity was evaluated according to the following criteria. Corrected mortality rate (%)=100×(Survival rate in an untreated plot−Survival rate in a treated plot)/Survival rate in an untreated plot • A: the corrected mortality rate is 100% • B: the corrected mortality rate is 90 to 99% • C: the corrected mortality rate is 80 to 89% • D: the corrected mortality rate is 50 to 79%

[3] = system: Laodelphax striatellus 3rd-instar nymphs; experiment: Insecticidal test on Laodelphax striatellus (rice seedling dip); conditions: 192 h, 500 ppm, seedling dip, 8 days after inoculation, read-out: activity level (corrected mortality rate), Laodelphax striatellus
Description: Example 13: Insecticidal Test on Laodelphax striatellus
as §3, with “Rice plant seedlings” for “Ten adults of Plutella xylostella”, “were” for “were released onto Chinese cabbage seedlings and allowed to lay eggs thereon. 2 days after the release of the adults, the seedling was”, “seedlings were put into a separate glass test tube and inoculated with ten 3rd-instar nymphs of Laodelphax striatellus and then the glass test tube” for “seedling”, “8” for “6”, “inoculation,” for “dip treatment,”

Myzus persicae = experiment: Insecticidal test on Myzus persicae (foliar application on potted Chinese cabbage); conditions: 144 h, read-out: control efficacy level (control rate), Myzus persicae
Excerpt: Example 14: Insecticidal Test on Myzus persicae
The compounds of formula (I) of the present invention or salts thereof were separately dispersed in water and diluted to 500 ppm. Chinese cabbage plants were planted in plastic pots (diameter: 8 cm, height: 8 cm). Aphids (Myzus persicae) were propagated on the plants and then the number of surviving aphids was counted. The dispersion was applied to the foliage of the potted plants. After the plants were air dried, these were kept in a greenhouse. 6 days after the application, the number of the alive insects was counted on the plants. The control rate was calculated according to the following formula and the control efficacy was evaluated according to the following criteria. Control rate (%)=100−{(T×Ca)/(Ta×C)}×100 • Ta: the number of alive insects before the foliar application in a treated plot • T: the number of alive insects after the foliar application in a treated plot • Ca: the number of alive insects before the foliar application in an untreated plot • C: the number of alive insects after the foliar application in an untreated plot • A: the control rate is 100% • B: the control rate is 90 to 99% • C: the control rate is 80 to 89% • D: the control rate is 50 to 79%

[4] = system: adult Ctenocephalides felis fleas; experiment: Ingestion activity (flea membrane feeding, blood feeding) against adult Ctenocephalides felis; conditions: Ctenocephalides felis; bovine blood, 24h post treatment; read-out: EC80 (% motility reduction, adult C. felis, ingestion via membrane feeding)
Excerpt: Example 6: Screening Method to Test Ingestion Activity of Compounds of Formula (I) Against Adult Ctenocephalides felis
as §1
It is important to note that compounds that show better activity versus ticks are more desirable in the animal health field, as ticks are more difficult to control than fleas. Noteworthy, in particular with regard to fleas the illustrated comparative data are based on a flea membrane feeding (ingestion, blood feeding) assay. Data from this assay are more relevant for compounds intended to be delivered systemically to an animal via oral or injectable routes. Membrane feeding assays differ to primary screening laboratory contact assays in that the latter only measure the effect of the direct contact of selected compounds on the parasite, such as the flea or the tick. The information derived from laboratory contact assays is strictly limited to the ability of the compound to be absorbed through the parasite surface and to reach its molecular target, and no information can be gleaned from these contact assays as to whether the compound would also be active when presented orally to the ectoparasite itself in a blood meal, such as with the membrane feeding assay, and certainly not when administered orally to an animal host (e.g. “in vivo”) with subsequent exposure to the ectoparasite.
as §2

[5] = system: Spodoptera litura 2nd-instar larvae; experiment: Insecticidal test on Spodoptera litura (cabbage leaf dip); conditions: foliar, 192 h, 8 days after inoculation, read-out: activity level (corrected mortality rate), Spodoptera litura
Description: Example 11: Insecticidal Test on Spodoptera litura
as §3, with “Cabbage leaves” for “Ten adults of Plutella xylostella”, “were” for “were released onto Chinese cabbage seedlings and allowed to lay eggs thereon. 2 days after the release of the adults, the seedling was”, “leaves were placed in a plastic Petri dish with a diameter of 9 cm and inoculated with ten 2nd-instar larvae of Spodoptera litura, after which the dish” for “seedling”, “closed and then allowed to stand” for “kept”, “8” for “6”, “inoculation,” for “dip treatment,”

[6] = 500 ppm, foliar application, 6 days after application

`CCS(=O)(=O)c1cc(-c2ccc(C3CC3)cc2)cnc1-n1nc2cc(SC(F)(F)F)ncc2c1Cl` [Compound 27, 2-[3-chloro-6-[(trifluoromethyl)sulfanyl]pyrazolo[4,3-c]pyridin-2-yl]-5-(4-cyclopropylphenyl)-3-(ethanesulfonyl)pyridine] showed an EC50 (Aedes aegypti L1 larvae) of less than 40 nM, an EC50 [1] of less than 10000 nM and an EC80 [2] of 1000 to 10000 nM.
With `CCS(=O)(=O)c1cc(-c2ccc(C3CC3)cc2)cnc1-n1cc2cnc(S(=O)(=O)C(F)(F)F)cc2n1` [Compound 30, 5-(4-cyclopropylphenyl)-3-(ethanesulfonyl)-2-[6-trifluoromethanesulfonylpyrazolo[4,3-c]pyridin-2-yl]pyridine] the EC50 (Aedes aegypti L1 larvae) was less than 40 nM and the EC80 [2] was 1000 to 10000 nM.
Work on `CCS(=O)(=O)c1cc(-c2ccc(C3CC3)cc2)cnc1-c1ccc(OCC(F)(F)C(F)(F)F)cn1` [Compound 52, 5-(4-cyclopropylphenyl)-3-(ethanesulfonyl)-5′-(2,2,3,3,3-pentafluoropropoxy)-2,2′-bipyridine] yielded an EC50 (Aedes aegypti L1 larvae) of less than 40 nM, an EC50 [1] of less than 10000 nM and a mortality at 500 ppm (Plutella xylostella) of 100%. It also gave a mortality at 500 ppm [3] of 100% and a pest or weed control at 500 ppm (Myzus persicae; [6]) of 100%.
Work on `CCS(=O)(=O)c1cc(-c2ccnc(C3CC3)c2)cnc1-c1nc2cc(C(F)(F)C(F)(F)F)nnc2n1C` [Compound 60, 2′-cyclopropyl-5-(ethanesulfonyl)-6-[7-methyl-3-(1,1,2,2,2-pentafluoroethyl)imidazo[4,5-c]pyridazin-6-yl]-3,4′-bipyridine] yielded an EC50 (Aedes aegypti L1 larvae) of less than 40 nM, an EC50 [1] of 10000 to 100000 nM and an EC80 [2] of 1000 to 10000 nM. It also gave a mortality at 500 ppm (Plutella xylostella) of 100% and a mortality at 500 ppm [3] of 100%.
In the case of `CCS(=O)(=O)c1cc(-c2ccc(C3CC3)cc2)cnc1-c1nc2cc(S(=O)(=O)C(F)(F)F)cnc2n1C` [Compound 82, 5-(4-cyclopropylphenyl)-3-(ethanesulfonyl)-2-[3-methyl-6-trifluoromethanesulfonylimidazo[4,5-b]pyridin-2-yl]pyridine], the EC50 (Aedes aegypti L1 larvae) is reported as less than 40 nM, the EC80 [2] is reported as 1000 to 10000 nM and the mortality at 500 ppm (Plutella xylostella) is reported as 100%. For the same molecule, the mortality at 500 ppm [3] was 100%.
`CCS(=O)(=O)c1cc(-c2ccc(C3CC3)cc2)cnc1-c1nc2cc(SC(F)(F)F)cnc2n1C` [Compound 83, 5-(4-cyclopropylphenyl)-3-(ethanesulfonyl)-2-[3-methyl-6-[(trifluoromethyl)sulfanyl]imidazo[4,5-b]pyridin-2-yl]pyridine] showed an EC50 (Aedes aegypti L1 larvae) of less than 40 nM, an EC80 [2] of 1000 to 10000 nM and a mortality at 500 ppm (Plutella xylostella) of 100%. The mortality at 500 ppm [3] was 100% and the pest or weed control at 500 ppm (Myzus persicae; [6]) was 100%.
`CCS(=O)(=O)c1cc(-c2ccc(C3CC3)cc2)cnc1-c1cc2n(CC(F)(F)F)cc(C(F)(F)F)cc-2n1` [Compound 107, 5-(4-cyclopropylphenyl)-3-(ethanesulfonyl)-2-[4-(2,2,2-trifluoroethyl)-6-(trifluoromethyl)pyrrolo[3,2-b]pyridin-2-yl]pyridine] showed an EC80 [4] of 1000 to 10000 nM, an EC80 [2] of 1000 to 10000 nM and a mortality at 500 ppm [5] of 100%.
In the case of `CCS(=O)(=O)c1cc(-c2ccc(C3CC3)nc2)cnc1-c1ccc(OCC(F)(F)C(F)(F)F)cn1` [Compound 123, 6′-cyclopropyl-5-(ethanesulfonyl)-6-[5-(2,2,3,3,3-pentafluoropropoxy)pyridin-2-yl]-3,3′-bipyridine], the mortality at 500 ppm [5] is reported as 100%, the mortality at 500 ppm (Plutella xylostella) is reported as 100% and the mortality at 500 ppm [3] is reported as 100%. It also gave a pest or weed control at 500 ppm (Myzus persicae; foliar) of 100%.
In the case of `CCS(=O)(=O)c1cc(-c2cccc(C3(C(F)(F)F)CC3)n2)cnc1-c1cc2n(CC(F)F)cc(C(F)(F)F)cc-2n1` [Compound 171, 6′-[4-(2,2-difluoroethyl)-6-(trifluoromethyl)pyrrolo[3,2-b]pyridin-2-yl]-5′-(ethanesulfonyl)-6-[I-(trifluoromethyl)cyclopropyl]-2,3′-bipyridine], the EC80 [4] is reported as 1000 to 10000 nM, the EC80 [2] is reported as 1000 to 10000 nM and the mortality at 500 ppm [5] is reported as 100%. For the same molecule, the mortality at 500 ppm (Plutella xylostella) was 100%.
`CCS(=O)(=O)c1cc(-c2ccc(C3(C(F)(F)F)CC3)cc2)cnc1-c1nc2cc3c(cc2n1C)OC(F)(F)O3` [compound 129] was tested, and the EC80 [4] was 1000 to 10000 nM, the EC80 [2] was 1000 to 10000 nM and the mortality at 500 ppm [5] was 100%. It also gave a mortality at 500 ppm (Plutella xylostella) of 100% and a mortality at 500 ppm [3] of 100%.
Work on `CCS(=O)(=O)c1cc(-c2nccc(C3CC3)n2)cnc1-c1nc2cc(C(F)(F)C(F)(F)F)nnc2n1C` [compound 143] yielded an EC80 [4] of less than 1000 nM, an EC80 [2] of less than 1000 nM and a mortality at 500 ppm [5] of 100%. It also gave a mortality at 500 ppm (Plutella xylostella) of 100% and a mortality at 500 ppm [3] of 100%.
